Patent publication US11535597B2, “Photoreactive ligands and uses thereof” (The Scripps Research Institute, priority 2017, dated 2022)

System: proteins in HEK293T cells
Test: MS-based mapping of FFF probe-modified peptides (isoTOP, sites of labeling)
Type: binding, human
Procedure: Preparation and analysis was adapted from methods previously reported. In brief, for global mapping of fragment probe-modified peptides, separate 10 cm dishes of cells were treated with probes (200-250 μM) in 3.0 mL of DMEM (serum-free) and (if applicable) competitor ligands, proteomes harvested and subjected to click chemistry conditions with either light or heavy isotopically labeled biotin-TEV-azide (10 μL of 5 mM stocks in DMSO, final concentration=100 μM), TCEP, ligand and CuSO4 as detailed above. The samples were allowed to react for 1 h at which point the samples were centrifuged (16,000 g, 5 min, 4° C.). The resulting pellets were sonicated in ice-cold methanol (500 μL) and the resuspended light- and heavy-labeled samples were then combined and centrifuged (16,000 g, 5 min, 4° C.). The pellets were then solubilized in PBS containing 1.2% SDS (1 mL) with sonication and heating (5 min, 95° C.). Samples were transferred to falcon tubes containing DPBS (5 mL), to which a 100 μL of streptavidin-agarose beads slurry was added. After incubation, the beads (3 hr) were pelleted by centrifugation (1,400 g, 3 min) and were washed (2×10 mL PBS and 2×10 mL water). The beads were transferred to eppendorf tubes with 1 mL DPBS, centrifuged (1,400 g, 3 min), and resuspended in PBS containing 6 M urea. To this was added 10 mM DTT (25 μL of a 200 mM stock in water) and the beads were incubated at 65° C. for 15 mins. 20 mM iodoacetamide (25 μL of a 400 mM stock in water) was then added and allowed to react at 37° C. for 30 mins with shaking. The bead mixture was diluted with 900 μL PBS, pelleted by centrifugation (1,400 g, 3 min), and resuspended in 200 μL 2M urea (DPBS) containing trypsin and CaCl2 as described above. The beads were separated from the digest by centrifugation (1,000 g, 1 min), washed (2×1 mL PBS and 2×1 mL water) and then transferred to fresh eppendorfs with 1 mL water. The washed beads were washed once further in 150 μL TEV buffer (50 mM Tris, pH 8, 0.5 mM EDTA, 1 mM DTT) by centrifugation (1,400 g, 3 min) and the resuspended in 150 μL TEV buffer. 5 μL TEV protease (80 μM) was added and the reactions were rotated overnight at 29° C. The TEV digest was separated from the beads by centrifugation (1,400 g, 3 min) and the beads were washed once with water (100 μL). The samples were then acidified to a final concentration of 5% (v/v) formic acid and stored at −80° C. prior to analysis.
The resulting probe-modified peptides were collected for MS analysis, which was performed as described above with differences in the salt bumps applied in the chromatographic gradients which in this case were 0%, 30%, 60%, 90% and 100% NH4OAc (500 μM). The protein identification searches of the MS data were performed with the following changes applied to identify the peptides modified with the corresponding fragment probe and the cleaved TEV tag. All amino acids were considered as possible residues for modification. To facilitate the computational searches, sets of up to 3 amino acids were searched using ProLuCID and filtered with DTASelect as described above. […] The isoTOP ratios for probe labeled peptides were quantified using the in-house software CIMAGE.
For each protein in the site-of-labeling dataset, the UniProtKB accession number was used to map and collect relevant structures from the RCSB Protein Data Bank (PDB) fulfilling the following criteria: structures determined by X-ray crystallography, wild-type protein, Homo sapiens as the sole source organism. […] Fpocket 2.0 was used to detect potential binding pockets for the resultant structures with all parameters set at recommended default. Pockets with volume less than 500 Å^3 were removed from output prior to further analysis. Residues surrounding fpocket predicted binding pockets for each protein were collected to determine the number of residues overlapping with isoTOP peptides.

C#CCCC1(CCC(=O)NC2N=C(c3ccccc3)c3ccccc3NC2=O)N=N1 (centres unmarked) [probe 2, 3-(3-(But-3-yn-1-yl)-3H-diazirin-3-yl)-N-(2-oxo-5-phenyl-2,3-dihydro-1H-benzo[e][1,4]diazepin-3-yl)propanamide]
Labeled Peptide of GSTP1 Glutathione S-transferase P (Accession P09211, residues of probe-labeled peptide, family Enzymes): 56-71
Labeled Peptide of HNRNPH3 Heterogeneous nuclear ribonucleoprotein H3 (Accession P31942, residues of probe-labeled peptide, family Transcription factors, Regulators): 324-343
Labeled Peptide of FUS RNA-binding protein FUS (Accession P35637, residues of probe-labeled peptide, family Transcription factors, Regulators): 335-348
Labeled Peptide (GSTP1 Glutathione S-transferase P, residues of probe-modified peptide): 56-71
Labeled Peptide (HNRNPL Heterogeneous nuclear ribonucleoprotein L, residues of probe-modified peptide): 399-411
Labeled Peptide (MESDC2 LDLR chaperone MESD (Q14696), residues of the probe-labeled peptide): 113-127
Labeled Peptide (NOC2L (Q9Y3T9), residues of the probe-labeled peptide): 591-606
Labeled Peptide (P09211 GSTP1 Glutathione S-transferase P): 56-71
Labeled Peptide (residues) of PPP1CC Serine/threonine-protein phosphatase PP1-gamma cat (P36873, peptide IYGFYDECK, PDB 4UT2): 133-141
Labeled Peptide (P55263 ADK Adenosine kinase): 209-224
Labeled Peptide (residues) of PPP1CA Serine/threonine-protein phosphatase PP1-alpha cat (P62136, peptide IYGFYDECK, PDB 4XPN): 133-141
Labeled Peptide (protein ADK (P55263), residues of probe-labeled peptide): 209-224
Labeled Peptide (protein ADK Adenosine kinase, residues of probe-labeled peptide): 209-224
Labeled Peptide (protein BSG Basigin (P35613), residues of probe-labeled peptide): 228-243
Labeled Peptide (protein CLPTM1 Cleft lip and palate transmembrane protein 1 (O96005), residues of probe-labeled peptide): 548-562
Labeled Peptide (protein EIF3E Eukaryotic translation initiation factor 3 submit (P60228), residues of probe-labeled peptide): 173-191
Labeled Peptide (protein EIF3H Eukaryotic translation initiation factor 3 submit (O15372), residues of probe-labeled peptide): 207-220
Labeled Peptide (protein EQSR1 RNA-binding protein EWS (Q01844), residues of probe-labeled peptide): 269-292
Labeled Peptide (protein FARSB Phenylalanine--tRNA ligase beta subunit, residues of probe-labeled peptide): 518-530
Labeled Peptide (protein FARSB Phenylalanini--tRNA ligase beta subunit (Q9NSD9), residues of probe-labeled peptide): 518-530
Labeled Peptide (protein P62917 RPL8 60S ribosomal protein L8): 129-144
Labeled Peptide (protein PFDN5 Prefoldin subunit 5 (Q99471)): 20-37
Labeled Peptide (protein PPP1CA Serine/threonine-protein phosphatase PP1-alpha cat, residues of the probe-labeled peptide): 133-141
Labeled Peptide (protein PPP1CA Serine/threonine-protein phosphate PP1-alpha cat (P62136)): 133-141
Labeled Peptide (protein PPP1CB Serine/threonine-protein phosphate PP1-alpha cat (P62140)): 132-140
Labeled Peptide (protein PPP1CC Serine/threonine-protein phosphatase PP1-gamma cat, residues of the probe-labeled peptide): 133-141
Labeled Peptide (protein PPP1CC Serine/threonine-protein phosphate PP1-gamma cat (P36873)): 133-141
Labeled Peptide (protein PSMA2 Proteasome subunit alpha type-2 (P25787)): 144-159
Labeled Peptide (protein PSMA2 Proteasome subunit alpha type-2, residues of the probe-labeled peptide): 144-159
Labeled Peptide (protein PSMD11 26S proteasome non-ATPase regulatory subunit 11 (O00231)): 164-175
Labeled Peptide (protein PTCD3 Pentatricopeptide repeat-containing protein 3, mit (Q96EY7)): 119-126
Labeled Peptide (protein Q6NUK1 SCLC25A24 Calcium-binding mitochondrial carrier protein SCaM): 454-469
Labeled Peptide (protein Q15631 TSN Translin): 205-215
Labeled Peptide (protein Q92804 TAF15 TATA-binding protein-associated factor 2N): 284-297
Labeled Peptide (protein QKI Protein quaking (Q96PU8)): 192-205
Labeled Peptide (protein RUVBL1 RuvB-like 1, residues of the probe-labeled peptide): 318-333
Labeled Peptide (protein RUVBL1 RuvB-like 1, residues of the probe-modified peptide): 91-107
Labeled Peptide (protein TSN Translin, residues of the probe-modified peptide): 205-215
